Reference: the NIST ThermoML archive (doi:10.1021/je0601208)

Key:
[1] = xn = mol fraction of the nth substance listed
[2] = refractive index (Na D-line) (dimensionless); xn = mol fraction of the nth substance listed; details: 100.5 kPa, Liquid, Standard Abbe refractometry

CCCC(=O)OCCC(C)C [3-methylbutyl butanoate] + CCO
Details	refractive index, 288.15 K	refractive index, 298.15 K	refractive index, 308.15 K	refractive index, 318.15 K	surface tension liquid-gas, 288.15 K [mN/m]	surface tension liquid-gas, 298.15 K [mN/m]	surface tension liquid-gas, 308.15 K [mN/m]	surface tension liquid-gas, 318.15 K [mN/m]
[1], x1 = 0.05	–	–	–	–	23.3	22.6	21.8	20.9
[1], x1 = 0.1	–	–	–	–	23.6	22.8	22	21.1
[1], x1 = 0.15	–	–	–	–	23.8	23	22.2	21.3
[1], x1 = 0.2	–	–	–	–	24	23.1	22.4	21.5
[1], x1 = 0.25	–	–	–	–	24.1	23.3	22.5	21.6
[1], x1 = 0.3	–	–	–	–	24.3	23.4	22.6	21.7
[1], x1 = 0.35	–	–	–	–	24.4	23.5	22.7	21.8
[1], x1 = 0.4	–	–	–	–	24.5	23.6	22.8	21.9
[1], x1 = 0.45	–	–	–	–	24.6	23.7	22.9	22
[1], x1 = 0.5	–	–	–	–	24.7	23.8	23	22.1
[1], x1 = 0.55	–	–	–	–	24.8	23.9	23.1	22.2
[1], x1 = 0.6	–	–	–	–	24.9	23.9	23.2	22.3
[1], x1 = 0.65	–	–	–	–	25	24	23.3	22.4
[1], x1 = 0.7	–	–	–	–	25.1	24.1	23.4	22.5
[1], x1 = 0.75	–	–	–	–	25.2	24.2	23.5	22.6
[1], x1 = 0.8	–	–	–	–	25.3	24.3	23.6	22.7
[1], x1 = 0.85	–	–	–	–	25.4	24.4	23.7	22.8
[1], x1 = 0.9	–	–	–	–	25.5	24.5	23.8	22.9
[1], x1 = 0.95	–	–	–	–	25.6	24.6	23.9	23
[1], x1 = 1	–	–	–	–	25.7	24.7	24	23.1
[2], x1 = 0.05	1.3703	1.36624	1.36195	1.3578	–	–	–	–
[2], x1 = 0.1	1.37602	1.37182	1.36747	1.36327	–	–	–	–
[2], x1 = 0.15	1.3808	1.37656	1.37218	1.36792	–	–	–	–
[2], x1 = 0.2	1.38488	1.38059	1.3762	1.3719	–	–	–	–
[2], x1 = 0.25	1.38839	1.38406	1.37967	1.37533	–	–	–	–
[2], x1 = 0.3	1.39145	1.38709	1.38268	1.37832	–	–	–	–
[2], x1 = 0.35	1.39415	1.38977	1.38535	1.38096	–	–	–	–
[2], x1 = 0.4	1.39656	1.39216	1.38773	1.38332	–	–	–	–
[2], x1 = 0.45	1.39871	1.39431	1.38987	1.38544	–	–	–	–
[2], x1 = 0.5	1.40065	1.39624	1.3918	1.38736	–	–	–	–
[2], x1 = 0.55	1.4024	1.39798	1.39354	1.3891	–	–	–	–
[2], x1 = 0.6	1.40399	1.39956	1.39513	1.39067	–	–	–	–
[2], x1 = 0.65	1.40543	1.401	1.39656	1.3921	–	–	–	–
[2], x1 = 0.7	1.40673	1.4023	1.39786	1.3934	–	–	–	–
[2], x1 = 0.75	1.40793	1.40349	1.39905	1.39459	–	–	–	–
[2], x1 = 0.8	1.40902	1.40458	1.40015	1.39569	–	–	–	–
[2], x1 = 0.85	1.41003	1.40559	1.40116	1.3967	–	–	–	–
[2], x1 = 0.9	1.41096	1.40652	1.4021	1.39763	–	–	–	–
[2], x1 = 0.95	1.41181	1.40737	1.40296	1.39849	–	–	–	–
[2], x1 = 1	1.41259	1.40815	1.40374	1.39927	–	–	–	–

CC(=O)OCCC(C)C [3-methylbutyl ethanoate] + CCO
Details	refractive index, [2]	surface tension liquid-gas, [1] [mN/m]
288.15 K, x1 = 0.05	1.36803	23.2
288.15 K, x1 = 0.1	1.37207	23.4
288.15 K, x1 = 0.15	1.37559	23.6
288.15 K, x1 = 0.2	1.3787	23.7
288.15 K, x1 = 0.25	1.38146	23.8
288.15 K, x1 = 0.3	1.38393	24
288.15 K, x1 = 0.35	1.38614	24.1
288.15 K, x1 = 0.4	1.38814	24.2
288.15 K, x1 = 0.45	1.38996	24.3
288.15 K, x1 = 0.5	1.39164	24.4
288.15 K, x1 = 0.55	1.39319	24.5
288.15 K, x1 = 0.6	1.39462	24.6
288.15 K, x1 = 0.65	1.39595	24.7
288.15 K, x1 = 0.7	1.39717	24.8
288.15 K, x1 = 0.75	1.39829	24.9
288.15 K, x1 = 0.8	1.39933	25
288.15 K, x1 = 0.85	1.40031	25.1
288.15 K, x1 = 0.9	1.40122	25.2
288.15 K, x1 = 0.95	1.40207	25.3
288.15 K, x1 = 1	1.40288	25.4
298.15 K, x1 = 0.05	1.36393	22.4
298.15 K, x1 = 0.1	1.36787	22.5
298.15 K, x1 = 0.15	1.37133	22.7
298.15 K, x1 = 0.2	1.3744	22.8
298.15 K, x1 = 0.25	1.37712	22.9
298.15 K, x1 = 0.3	1.37954	–
298.15 K, x1 = 0.35	1.38172	23
298.15 K, x1 = 0.4	1.3837	23.1
298.15 K, x1 = 0.45	1.3855	23.2
298.15 K, x1 = 0.5	1.38717	23.3
298.15 K, x1 = 0.55	1.38871	23.4
298.15 K, x1 = 0.6	1.39013	23.5
298.15 K, x1 = 0.65	1.39144	23.6
298.15 K, x1 = 0.7	1.39265	23.7
298.15 K, x1 = 0.75	1.39378	23.8
298.15 K, x1 = 0.8	1.39482	23.9
298.15 K, x1 = 0.85	1.3958	24
298.15 K, x1 = 0.9	1.3967	24.1
298.15 K, x1 = 0.95	1.39755	24.2
298.15 K, x1 = 1	1.39836	24.3
308.15 K, x1 = 0.05	1.35964	21.6
308.15 K, x1 = 0.1	1.36349	21.6
308.15 K, x1 = 0.15	1.3669	21.7
308.15 K, x1 = 0.2	1.36992	21.8
308.15 K, x1 = 0.25	1.3726	21.9
308.15 K, x1 = 0.3	1.37499	22
308.15 K, x1 = 0.35	1.37714	22.1
308.15 K, x1 = 0.4	1.37909	22.2
308.15 K, x1 = 0.45	1.38087	22.3
308.15 K, x1 = 0.5	1.38251	22.4
308.15 K, x1 = 0.55	1.38404	22.5
308.15 K, x1 = 0.6	1.38545	22.6
308.15 K, x1 = 0.65	1.38675	22.7
308.15 K, x1 = 0.7	1.38795	22.8
308.15 K, x1 = 0.75	1.38907	22.9
308.15 K, x1 = 0.8	1.39011	23
308.15 K, x1 = 0.85	1.39109	23.1
308.15 K, x1 = 0.9	1.39199	23.2
308.15 K, x1 = 0.95	1.39284	23.3
308.15 K, x1 = 1	1.39365	23.4
318.15 K, x1 = 0.05	1.35556	20.6
318.15 K, x1 = 0.1	1.3593	20.6
318.15 K, x1 = 0.15	1.36263	20.7
318.15 K, x1 = 0.2	1.36558	20.8
318.15 K, x1 = 0.25	1.36821	20.9
318.15 K, x1 = 0.3	1.37056	21
318.15 K, x1 = 0.35	1.37268	21.1
318.15 K, x1 = 0.4	1.3746	21.2
318.15 K, x1 = 0.45	1.37634	21.3
318.15 K, x1 = 0.5	1.37795	21.4
318.15 K, x1 = 0.55	1.37944	21.5
318.15 K, x1 = 0.6	1.38082	21.6
318.15 K, x1 = 0.65	1.38211	21.7
318.15 K, x1 = 0.7	1.3833	21.8
318.15 K, x1 = 0.75	1.3844	21.9
318.15 K, x1 = 0.8	1.38543	22
318.15 K, x1 = 0.85	1.3864	22.1
318.15 K, x1 = 0.9	1.3873	22.2
318.15 K, x1 = 0.95	1.38814	22.3
318.15 K, x1 = 1	1.38895	22.4
